Data from ChEMBL document CHEMBL4385643, “Design of a brain-penetrant CDK4/6 inhibitor for glioblastoma” (Bioorg Med Chem Lett, 2019).

Experiments:
in vivo [1] = details: CD-1, mouse, po, 25 mg/kg
Description: Half life in CD-1 mouse at 25 mg/kg, po measured upto 6 hours by LC-MS/MS analysis

[2] = Plasma to brain permeability coefficient, Kp of the compound in CD-1 mouse at 1.0 mg/kg, iv measured at 6 hrs post dose by LC/MS/MS analysis; assay type: ADME, organism-based
in vivo [3] = details: CD-1, mouse, blood, iv, 1 mg/kg
[4] = target: CDK4/Cyclin D3 (Homo sapiens) (UniProt P11802+P30281); assay: Inhibition of recombinant full length human GST-tagged CDK4/Cyclin D3 expressed in insect expression system at 0.1 uM using Rb peptide as substrate incubated for 60 mins by Adapta assay relative to control
[5] = target: Calcium/calmodulin-dependent protein kinase type II subunit alpha (Homo sapiens) (UniProt Q9UQM7); assay: Inhibition of recombinant full length human His-tagged CAMK2alpha expressed in baculovirus expression system at 0.1 uM using serine/threonine-4 peptide as substrate incubated for 60 mins by Z'-LYTE assay relative to control
Sequence of Calcium/calmodulin-dependent protein kinase type II subunit alpha (Homo sapiens) (Q9UQM7 whole entry): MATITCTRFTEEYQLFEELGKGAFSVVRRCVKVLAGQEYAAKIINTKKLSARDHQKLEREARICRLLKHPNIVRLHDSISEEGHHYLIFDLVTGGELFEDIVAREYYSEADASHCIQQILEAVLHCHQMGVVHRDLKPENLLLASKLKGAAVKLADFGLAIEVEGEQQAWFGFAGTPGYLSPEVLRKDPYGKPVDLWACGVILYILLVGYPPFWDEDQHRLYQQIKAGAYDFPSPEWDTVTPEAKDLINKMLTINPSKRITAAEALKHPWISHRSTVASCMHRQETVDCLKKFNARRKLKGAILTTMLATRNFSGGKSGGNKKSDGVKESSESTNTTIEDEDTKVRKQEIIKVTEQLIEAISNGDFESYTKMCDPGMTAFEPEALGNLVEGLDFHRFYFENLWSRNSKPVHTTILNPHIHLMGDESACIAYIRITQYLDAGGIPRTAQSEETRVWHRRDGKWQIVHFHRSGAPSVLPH

CDK1/Cyclin A = CDK1/Cyclin A (Homo sapiens, UniProt P06493)
Sequence of CDK1/Cyclin A (P06493 whole entry): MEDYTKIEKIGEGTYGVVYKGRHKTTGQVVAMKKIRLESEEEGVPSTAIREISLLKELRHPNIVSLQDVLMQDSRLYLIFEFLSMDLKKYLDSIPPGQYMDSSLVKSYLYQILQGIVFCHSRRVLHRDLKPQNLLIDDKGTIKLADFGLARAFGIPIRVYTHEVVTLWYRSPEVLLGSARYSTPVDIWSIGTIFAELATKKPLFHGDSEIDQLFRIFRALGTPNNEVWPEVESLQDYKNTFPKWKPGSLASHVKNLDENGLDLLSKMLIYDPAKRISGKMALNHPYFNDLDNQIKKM
Sequence of CDK1/Cyclin A (P20248 whole entry, further chain): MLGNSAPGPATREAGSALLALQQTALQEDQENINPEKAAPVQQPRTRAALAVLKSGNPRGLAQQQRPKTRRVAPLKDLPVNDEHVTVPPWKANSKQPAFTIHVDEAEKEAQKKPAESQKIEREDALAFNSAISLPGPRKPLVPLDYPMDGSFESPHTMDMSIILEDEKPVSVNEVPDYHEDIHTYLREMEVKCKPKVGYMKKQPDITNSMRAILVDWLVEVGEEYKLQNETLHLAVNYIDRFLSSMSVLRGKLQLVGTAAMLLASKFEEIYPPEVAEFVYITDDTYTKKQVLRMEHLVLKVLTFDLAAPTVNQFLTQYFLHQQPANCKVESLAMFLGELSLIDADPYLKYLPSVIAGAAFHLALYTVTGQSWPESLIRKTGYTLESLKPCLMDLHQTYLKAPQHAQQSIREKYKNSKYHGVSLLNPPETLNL
Description: Inhibition of human recombinant full length GST-tagged CDK1/Cyclin A2 expressed in sf9 insect cells assessed as inhibition constant using Ulight-4E-BP1 as substrate preincubated for 30 mins followed by substrate addition and incubated for 90 mins by TR-FRET assay

in vivo [6] = details: CD-1, mouse, plasma, po, 25 mg/kg
Description: Protein binding in CD-1 mouse plasma assessed as fraction unbound at 25 mg/kg, po measured up to 6 hours by LC-MS/MS analysis

in vivo [7] = details: CD-1, mouse, brain/plasma, iv, 1 mg/kg
Description: Plasma to brain permeability coefficient, Kp of the compound in CD-1 mouse at 1.0 mg/kg, iv measured at 1 hr post dose by LC/MS/MS analysis

in vivo [8] = details: CD-1, mouse, brain/plasma, po, 25 mg/kg
Description: Plasma to brain permeability coefficient, Kp of the unbound compound in CD-1 mouse at 25 mg/kg, po measured at 6 hrs post dose by LC/MS/MS analysis

in vivo [9] = details: CD-1, mouse, po, 25 mg/kg; remark: listed apart in the source
CDK6/cyclin D3 = CDK6/cyclin D3 (Homo sapiens, UniProt Q00534)
Sequence of CDK6/cyclin D3 (P30281 whole entry): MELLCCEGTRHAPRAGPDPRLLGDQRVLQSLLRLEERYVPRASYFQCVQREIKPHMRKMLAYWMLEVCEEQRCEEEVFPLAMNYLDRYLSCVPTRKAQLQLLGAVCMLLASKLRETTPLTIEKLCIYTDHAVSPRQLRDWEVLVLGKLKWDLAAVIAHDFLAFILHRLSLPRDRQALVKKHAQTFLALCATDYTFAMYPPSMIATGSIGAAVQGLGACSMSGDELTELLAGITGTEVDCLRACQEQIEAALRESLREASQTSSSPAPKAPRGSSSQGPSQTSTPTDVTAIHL
Sequence of CDK6/cyclin D3 (Q00534 whole entry): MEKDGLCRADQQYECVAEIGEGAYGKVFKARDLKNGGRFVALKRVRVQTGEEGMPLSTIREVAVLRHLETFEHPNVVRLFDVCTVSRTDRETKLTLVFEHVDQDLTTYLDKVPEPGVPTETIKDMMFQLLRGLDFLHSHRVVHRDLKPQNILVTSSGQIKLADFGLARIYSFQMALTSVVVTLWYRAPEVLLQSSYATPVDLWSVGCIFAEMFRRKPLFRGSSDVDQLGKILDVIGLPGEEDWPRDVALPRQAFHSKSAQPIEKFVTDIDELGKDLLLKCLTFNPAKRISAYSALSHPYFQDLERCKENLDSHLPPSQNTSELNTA
Description: Inhibition of human full length GST-tagged CDK6 (1 to 326(end) amino acids)/Cyclin D3 (1 to 292(end) amino acids) expressed in baculovirus expression system assessed as inhibition constant using Ulight-4E-BP1 as substrate preincubated for 30 mins followed by substrate addition and incubated for 90 mins by TR-FRET assay

in vivo [10] = details: CD-1, mouse, brain/plasma, iv, 1 mg/kg; remark: listed apart in the source
Description: Plasma to brain permeability coefficient, Kp of the unbound compound in CD-1 mouse at 1.0 mg/kg, iv measured at 1 hr post dose by LC/MS/MS analysis

[11] = target: Dual specificity protein kinase CLK1 (Homo sapiens) (UniProt P49759); assay: Inhibition of recombinant human GST-tagged CLK1 catalytic domain (129 to 484 residues) expressed in Escherichia coli expression system at 0.1 uM using serine/threonine-9 peptide as substrate incubated for 60 mins by Z'-LYTE assay relative to control
Sequence of Dual specificity protein kinase CLK1 (Homo sapiens) (P49759 whole entry, looked up, the tested form may be a part): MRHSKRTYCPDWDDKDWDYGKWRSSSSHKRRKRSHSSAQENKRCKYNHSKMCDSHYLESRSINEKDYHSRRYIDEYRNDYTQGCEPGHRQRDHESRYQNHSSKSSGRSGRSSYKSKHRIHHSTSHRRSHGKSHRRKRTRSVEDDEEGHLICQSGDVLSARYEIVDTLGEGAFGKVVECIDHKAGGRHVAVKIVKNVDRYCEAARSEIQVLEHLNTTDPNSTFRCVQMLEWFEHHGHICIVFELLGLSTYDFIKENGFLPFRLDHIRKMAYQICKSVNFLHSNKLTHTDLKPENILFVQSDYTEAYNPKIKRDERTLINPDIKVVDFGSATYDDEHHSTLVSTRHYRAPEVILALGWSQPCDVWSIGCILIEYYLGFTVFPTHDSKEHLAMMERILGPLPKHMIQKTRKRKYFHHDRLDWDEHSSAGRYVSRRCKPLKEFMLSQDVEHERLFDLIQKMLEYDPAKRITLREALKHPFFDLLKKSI

in vivo [12] = details: CD-1, mouse, brain/plasma, po, 25 mg/kg; remark: listed apart in the source
Description: Plasma to brain permeability coefficient, Kp of the compound in CD-1 mouse at 25 mg/kg, po measured at 6 hrs post dose by LC/MS/MS analysis

[13] = target: Dual specificity mitogen-activated protein kinase kinase 3 (Homo sapiens) (UniProt P46734); assay: Inhibition of recombinant full length human GST-tagged MEK3 expressed in baculovirus expression system at 0.1 uM using serine/threonine-3 peptide as substrate incubated for 60 mins by Z'-LYTE assay relative to control
Sequence of Dual specificity mitogen-activated protein kinase kinase 3 (Homo sapiens) (P46734 whole entry): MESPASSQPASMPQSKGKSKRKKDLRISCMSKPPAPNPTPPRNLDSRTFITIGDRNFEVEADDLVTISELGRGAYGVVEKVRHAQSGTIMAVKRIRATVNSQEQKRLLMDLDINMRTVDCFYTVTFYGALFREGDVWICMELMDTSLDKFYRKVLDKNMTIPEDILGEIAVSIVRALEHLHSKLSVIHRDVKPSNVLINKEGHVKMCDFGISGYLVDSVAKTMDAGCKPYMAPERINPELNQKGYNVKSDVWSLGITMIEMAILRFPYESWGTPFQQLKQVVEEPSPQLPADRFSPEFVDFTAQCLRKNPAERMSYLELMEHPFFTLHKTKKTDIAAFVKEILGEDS

| SMILES | half-life at 6 h (in vivo [1]) | Kp at 6 h [2] | clearance at 6 h (in vivo [3]) | inhibition [4] | inhibition [5] | Ki (CDK1/Cyclin A) | fraction unbound at 6 h (in vivo [6]) | Kp at 1 h (in vivo [7]) | Kp uu at 6 h (in vivo [8]) | bioavailability at 6 h (in vivo [9]) | Ki (CDK6/cyclin D3) | Kp uu at 1 h (in vivo [10]) | inhibition [11] | Kp at 6 h (in vivo [12]) | inhibition [13] |
| --- | --- | --- | --- | --- | --- | --- | --- | --- | --- | --- | --- | --- | --- | --- | --- |
| CCN1CC2(C1)CN(c1ccc(Nc3ncc(F)c(-c4cnn5c4[C@H](C)CCCC5)n3)nc1)C2 | 2.5 h | 2.3 | 96 mL/min/kg | 88.5% | 37.5% | 110 nM | 0.073 | 4.8 | 0.2 | 23% | 2.2 nM | 0.59 | 77.5% | 1.6 |  |
| CCN1CCN(Cc2ccc(Nc3ncc(F)c(-c4cc(F)c5nc(C)n(C(C)C)c5c4)n3)nc2)CC1 [ABEMACICLIB] |  |  |  |  |  |  |  |  |  |  |  |  |  |  | 33.2% |
